# Assays:
# [1] = system: TNF-α; test: TNF-α protein level in M1 polarized THP-1 macrophages (ELISA); format: cell-based, Human; conditions: 0.1 μM, 36 h
# Method: (§1) Results are expressed as means ±S.D. (n = 3).
# (§2) Human monocytic THP-1 cells were maintained in RPMI 1640 medium (Corning, USA) supplemented with 2% L-glutamine,10% fetal bovine serum (FBS), 1% penicillin/ streptomycin and […] ß-mercaptoethanol. THP-1 monocytes are differentiated into macrophages by 24 h incubation with 150 nM phorbol 12-myristate 13-acetate (PMA, Sigma, P8139) followed by 24 h incubation in RPMI medium. Macrophages were polarized in M1 macrophages by incubation with 20 ng/ml of IFN-γ (R&D system, #285-IF) and 100 ng/ml of LPS (Sigma, #8630). […] Cytokine secretion in the culture medium was assayed using an ELISA kit according to the procedure recommended by the supplier (IL-6 (MultiSciences, 70-EK106/2–96), TNFα (MultiSciences,70-EK182HS-96)).
# [2] = in vivo; conditions: male, mouse, lung, po
# [3] = In vivo plasma pharmacokinetics in beagle dogs; conditions: Dog; for MRT last: read-out: MRT0-t; for MRT inf: read-out: MRT0-∞
# Method: (§3) After dosage, blood samples were collected into heparinized tubes at 2, 5, 15, 30, 60, 120, 240, 360, 540, and 720 min for the i.v. group, and at 5, 15, 30, 60, 90, 120, 240, 360, 540, 720 and 1440 min for the i.g. group. Plasma (100 μL) was isolated from the blood sample by centrifuging at 4 °C and 6000 rpm for 3 min and then stored at − 80 °C until analysis. An aliquot of 100 μL of each plasma sample was mixed with 20 μL of internal standard working solution (200 ng/mL of caffeine). Methanol (400 μL) was then added for precipitation. After vortexing for 5 min and centrifuging at 14000 rpm for 10 min, 5 μL of the supernatant was injected for LC-MS/MS analysis.
# (§4) The PK parameters were analyzed through the noncompartment model using WinNonlin 6.1 software (Pharsight Corporation, Mountain View, USA), including half-life (T1/2), the peak of the plasma concentration (Cmax), the time to peak of the plasma concentration (Tmax), the area under the plasma concentration-time curve during the period of observation (AUC0-t), the area under the plasma concentration-time curve from zero to infinity (AUC0-∞), clearance (CL), apparent volume of distribution (Vd), and the mean residence time.
# [4] = In vivo plasma pharmacokinetics in mice; conditions: for MRT last: read-out: MRT0-t; for MRT inf: read-out: MRT0-∞
# Method: as §3, §4
# [5] = system: SARS-CoV-2 specific nucleocapsid; test: Western blot analysis of nucleocapsid level in Vero cells; format: cell-based
# [6] = Lung distribution in mice after oral administration
# [7] = system: SARS-CoV-2; test: microbe, parasite or virus in culture; format: cell-based; conditions: Severe acute respiratory syndrome coronavirus 2, Vero; read-out: EC50 antiviral replication effect
# [8] = system: IL-6; test: LPS induced IL-6 protein level in M1 polarized THP-1 macrophages (ELISA); format: cell-based, Human; conditions: 0.01 μM, 36 h
# Method: as §1, §2
# [9] = in vivo; conditions: Sprague-Dawley, rat, lung, po
structure (smiles),measurement,setting,value
CC[C@H]1CN2CCc3cc(OC)c(OC)cc3[C@@H]2C[C@@H]1C[C@H]1NCCc2cc(OC)c(OC)cc21 [Emetine],TNF-α expression,[1],moderate effect
same,concentration at 12 h,[2]; 1 mg/kg,1800 nM
same,concentration at 72 h,[2]; 1 mg/kg,230 nM
same,concentration at 1 h,[2]; 1 mg/kg/day,5000 to 6000 nM
same,concentration at 72 h,[2]; 1 mg/kg/day,2170 nM
same,AUMC0-t,[3]; I.V. 1 mg/kg,1331 ± 695 hr*hr.*ng/mL
same,AUMC0-∞,[3]; I.V. 1 mg/kg,1626 ± 679 hr*hr.*ng/mL
same,AUMC0-t,[3]; P.O. 5 mg/kg,"12,464 ± 9313 hr*hr.*ng/mL"
same,AUMC0-∞,[3]; P.O. 5 mg/kg,"19,162 ± 13,435 hr*hr.*ng/mL"
same,Cl,[3]; P.O. 5 mg/kg,72.95 ± 62.47 mL/min/kg
same,Vz,[3]; P.O. 5 mg/kg,"51,033 ± 45,021 mL/kg"
same,AUC(0-inf),"[3]; beagle, iv, I.V. 1 mg/kg",468 ± 298 ng·h/mL
same,AUC(0-t),"[3]; beagle, iv, I.V. 1 mg/kg",449 ± 298 ng·h/mL
same,C0,"[3]; beagle, iv, I.V. 1 mg/kg",351 ± 44 ng/mL
same,Cmax,"[3]; beagle, iv, I.V. 1 mg/kg",260 ± 66.7 ng/mL
same,Tmax,"[3]; beagle, iv, I.V. 1 mg/kg",0.03 h
same,clearance,"[3]; beagle, iv, I.V. 1 mg/kg",45.8 mL/min/kg
same,half-life,"[3]; beagle, iv, I.V. 1 mg/kg",2.45 ± 0.91 h
same,MRT last,"[3]; beagle, iv, I.V. 1 mg/kg",3.2 ± 0.78 h
same,MRT inf,"[3]; beagle, iv, I.V. 1 mg/kg",3.82 ± 0.86 h
same,Vd,"[3]; beagle, iv, I.V. 1 mg/kg, read-out: Vz",9.55 ± 5.26 L/kg
same,AUC(0-inf),"[3]; beagle, po, P.O. 5 mg/kg",1740 ± 1080 ng·h/mL
same,AUC(0-t),"[3]; beagle, po, P.O. 5 mg/kg",1550 ± 964 ng·h/mL
same,Cmax,"[3]; beagle, po, P.O. 5 mg/kg",245 ± 164 ng/mL
same,Tmax,"[3]; beagle, po, P.O. 5 mg/kg",0.25 h
same,half-life,"[3]; beagle, po, P.O. 5 mg/kg",7.99 ± 0.35 h
same,bioavailability,"[3]; beagle, po, P.O. 5 mg/kg vs I.V. 1 mg/kg, read-out: F (oral bioavailability)",74.2 ± 46.2%
same,MRT last,"[3]; beagle, po, P.O. 5 mg/kg",7.63 ± 1.32 h
same,MRT inf,"[3]; beagle, po, P.O. 5 mg/kg",10.7 ± 1.21 h
same,AUMC0-t,[4]; I.V. 1 mg/kg,616 ± 181 hr*hr.*ng/mL
same,AUMC0-∞,[4]; I.V. 1 mg/kg,3472 ± 1149 hr*hr.*ng/mL
same,AUMC0-t,[4]; P.O. 10 mg/kg,8355 ± 2710 hr*hr.*ng/mL
same,AUMC0-∞,[4]; P.O. 10 mg/kg,"36,666 ± 31,176 hr*hr.*ng/mL"
same,Cl,[4]; P.O. 10 mg/kg,143.5 ± 64.88 mL/min/kg
same,Vz,[4]; P.O. 10 mg/kg,"174,470 ± 45,790 mL/kg"
same,AUC(0-inf),"[4]; male, mouse, iv, I.V. 1 mg/kg",258 ± 71 ng·h/mL
same,AUC(0-t),"[4]; male, mouse, iv, I.V. 1 mg/kg",120 ± 26 ng·h/mL
same,C0,"[4]; male, mouse, iv, I.V. 1 mg/kg",172 ± 86 ng/mL
same,Cmax,"[4]; male, mouse, iv, I.V. 1 mg/kg",111 ± 13.5 ng/mL
same,Tmax,"[4]; male, mouse, iv, I.V. 1 mg/kg",0.03 h
same,clearance,"[4]; male, mouse, iv, I.V. 1 mg/kg",68.6 mL/min/kg
same,half-life,"[4]; male, mouse, iv, I.V. 1 mg/kg",6.24 ± 1.17 h
same,MRT last,"[4]; male, mouse, iv, I.V. 1 mg/kg",5.06 ± 0.57 h
same,MRT inf,"[4]; male, mouse, iv, I.V. 1 mg/kg",13.4 ± 1.37 h
same,Vd,"[4]; male, mouse, iv, I.V. 1 mg/kg, read-out: Vz",38.4 L/kg
same,AUC(0-inf),"[4]; male, mouse, po, P.O. 10 mg/kg",1340 ± 625 ng·h/mL
same,AUC(0-t),"[4]; male, mouse, po, P.O. 10 mg/kg",811 ± 208 ng·h/mL
same,Cmax,"[4]; male, mouse, po, P.O. 10 mg/kg",61.6 ± 15.1 ng/mL
same,Tmax,"[4]; male, mouse, po, P.O. 10 mg/kg",1.67 ± 0.58 h
same,half-life,"[4]; male, mouse, po, P.O. 10 mg/kg",15.9 ± 8.22 h
same,bioavailability,"[4]; male, mouse, po, P.O. 10 mg/kg vs I.V. 1 mg/kg, read-out: F (oral bioavailability)",52.1 ± 24.2%
same,MRT last,"[4]; male, mouse, po, P.O. 10 mg/kg",10.2 ± 1.31 h
same,MRT inf,"[4]; male, mouse, po, P.O. 10 mg/kg",24.3 ± 10 h
same,"SARS-CoV-2 specific nucleocapsid level, anti-replication effect","[5]; Vero cells infected […], then drug 24 h",dose-dependently decreased
same,"SARS-CoV-2 specific nucleocapsid level, anti-entry effect","[5]; Vero cells pretreated with drug […], virus […], 24 h",confirmed this trend
same,Mice lung con.,"[6]; 1 mg/kg (P.O.) single dose, 1 h",0.23 ± 0.04 ng/mL
same,Mice lung con.,"[6]; 1 mg/kg (P.O.) single dose, 2 h",0.50 ± 0.35 ng/mL
same,Mice lung con.,"[6]; 1 mg/kg (P.O.) single dose, 4 h",0.81 ± 0.16 ng/mL
same,Mice lung con.,"[6]; 1 mg/kg (P.O.) single dose, 6 h",1.06 ± 0.09 ng/mL
same,Mice lung con.,"[6]; 1 mg/kg (P.O.) single dose, 9 h",1.75 ± 0.28 ng/mL
same,Mice lung con.,"[6]; 1 mg/kg (P.O.) single dose, 24 h",1.13 ± 0.18 ng/mL
same,Mice lung con.,"[6]; 1 mg/kg (P.O.) single dose, 48 h",0.61 ± 0.09 ng/mL
same,Mice lung con.,"[6]; 1 mg/kg (P.O.) single dose, 72 h",0.23 ± 0.06 ng/mL
same,Mice lung con.,"[6]; 1 mg/kg (Q.D.× 3 days, P.O.), 1 h",6.17 ± 1.54 ng/mL
same,Mice lung con.,"[6]; 1 mg/kg (Q.D.× 3 days, P.O.), 2 h",6.44 ± 0.96 ng/mL
same,Mice lung con.,"[6]; 1 mg/kg (Q.D.× 3 days, P.O.), 4 h",6.73 ± 0.40 ng/mL
same,Mice lung con.,"[6]; 1 mg/kg (Q.D.× 3 days, P.O.), 6 h",7.14 ± 2.10 ng/mL
same,Mice lung con.,"[6]; 1 mg/kg (Q.D.× 3 days, P.O.), 9 h",7.46 ± 0.89 ng/mL
same,Mice lung con.,"[6]; 1 mg/kg (Q.D.× 3 days, P.O.), 12 h",7.26 ± 0.93 ng/mL
same,Mice lung con.,"[6]; 1 mg/kg (Q.D.× 3 days, P.O.), 24 h",4.61 ± 0.84 ng/mL
same,Mice lung con.,"[6]; 1 mg/kg (Q.D.× 3 days, P.O.), 72 h",2.17 ± 0.42 ng/mL
same,retention time in lung tissue,"[6]; in vivo animal PK study, species not named at the place",over 12 h
same,time of maximum lung concentration,"[6]; mice, 1 mg/kg single oral dose",12 h
same,time of maximum lung concentration (Cmax),"[6]; mice, 1 mg/kg/day oral 3 days",9 h
same,EC50,[7],7 nM
same,LPS induced IL-6 expression level,[8],significantly reduce
same,Tmax,[9]; 1 mg/kg,12 h
same,concentration at 12 h,[9]; 1 mg/kg,1610 nM
same,concentration at 72 h,[9]; 1 mg/kg,360 nM
same,concentration at 1 h,[9]; 1 mg/kg/day,5000 to 6000 nM
same,concentration at 72 h,[9]; 1 mg/kg/day,4890 nM
